Measurements reported in ChEMBL document CHEMBL1201862, “PubChem BioAssay data set” (2004).
Values joined by “and” are separate entries in the source; they are usually repeats but may differ in a detail not shown here. Identical values can stand only once.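 Cultured in 96-well plates, cells were exposed to test compound for 48 hours across five concentrations. Abbreviation: GI50, concentration required for 50% inhibition of growth.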 Active and inactive are the calls of the source. No stated cut-off is given here; in the data, active = GI50 up to about 1.1 µM and inactive = higher.

Legend:
Assay in all cases: NCI tumour cell line growth inhibition, 48 h
U-251 = tested on: U-251
NCI/ADR-RES = tested on: NCI/ADR-RES
MDA-N = tested on: MDA-N
CAKI-1 = tested on: CAKI-1
OVCAR-3 = tested on: OVCAR-3
Hs-578T = tested on: Hs-578T
Malme-3M = tested on: Malme-3M
A498 = tested on: A498
MDA-MB-231 = tested on: MDA-MB-231
HCC 2998 = tested on: HCC 2998
CCRF-CEM = tested on: CCRF-CEM
SW-620 = tested on: SW-620
MDA-MB-435 = tested on: MDA-MB-435
COLO 205 = tested on: COLO 205
NCI-H226 = tested on: NCI-H226
NCI-H522 = tested on: NCI-H522
LOX IMVI = tested on: LOX IMVI
SF-268 = tested on: SF-268
SK-MEL-28 = tested on: SK-MEL-28
ACHN = tested on: ACHN
T47D = tested on: T47D
HCT-116 = tested on: HCT-116
RPMI-8226 = tested on: RPMI-8226
MCF7 = tested on: MCF7
IGROV-1 = tested on: IGROV-1
K562 = tested on: K562
HCT-15 = tested on: HCT-15
OVCAR-4 = tested on: OVCAR-4
RXF 393 = tested on: RXF 393
786-0 = tested on: 786-0
SR = tested on: SR
HT-29 = tested on: HT-29
SF-295 = tested on: SF-295
OVCAR-8 = tested on: OVCAR-8
HOP-62 = tested on: HOP-62
NCI-H460 = tested on: NCI-H460
SN12C = tested on: SN12C
NCI-H23 = tested on: NCI-H23
M14 = tested on: M14
SK-OV-3 = tested on: SK-OV-3
TK-10 = tested on: TK-10
UACC-62 = tested on: UACC-62
PC-3 = tested on: PC-3
SK-MEL-2 = tested on: SK-MEL-2
DU-145 = tested on: DU-145
A549 = tested on: A549
UACC-257 = tested on: UACC-257
MOLT-4 = tested on: MOLT-4
OVCAR-5 = tested on: OVCAR-5
SNB-75 = tested on: SNB-75
HL-60 = tested on: HL-60
KM12 = tested on: KM12
UO-31 = tested on: UO-31

`COc1ccc(COC(=O)NCC(=O)NC(C)C(=O)NC(Cc2ccccc2)C(=O)OCc2ccccc2)cc1` (stereo unspecified) was tested, and the GI50 (U-251) was 22.2 µM (inactive) and 21.9 µM (inactive), the GI50 (NCI/ADR-RES) was > 100 µM (inactive) and 67.1 µM (inactive) and the GI50 (MDA-N) was 25.9 µM (inactive) and 27.4 µM (inactive). For the same molecule, the GI50 (CAKI-1) was 20 µM (inactive) and 21.1 µM (inactive), the GI50 (OVCAR-3) was 22.1 µM (inactive) and 24.4 µM (inactive) and the GI50 (Hs-578T) was 23.9 µM (inactive) and 25.5 µM (inactive). For the same molecule, the GI50 (Malme-3M) was 19.2 µM (inactive) and 36.6 µM (inactive), the GI50 (A498) was 38.8 µM (inactive) and 22.5 µM (inactive) and the GI50 (MDA-MB-231) was 20 µM (inactive) and 25.6 µM (inactive). The GI50 (HCC 2998) was 20.9 µM (inactive) and 14.8 µM (inactive), the GI50 (CCRF-CEM) was 21.5 µM (inactive) and 13.6 µM (inactive) and the GI50 (SW-620) was 33.3 µM (inactive) and 45.8 µM (inactive). For the same molecule, the GI50 (MDA-MB-435) was 27.6 µM (inactive) and 22.1 µM (inactive), the GI50 (COLO 205) was 24.4 µM (inactive) and 24.2 µM (inactive) and the GI50 (NCI-H226) was 27.3 µM (inactive) and 34.9 µM (inactive). The GI50 (NCI-H522) was 12.2 µM (inactive) and 16.5 µM (inactive), the GI50 (LOX IMVI) was 28.1 µM (inactive) and 19.4 µM (inactive) and the GI50 (SF-268) was 24.3 µM (inactive) and 35 µM (inactive). For the same molecule, the GI50 (SK-MEL-28) was 18.9 µM (inactive) and 19.4 µM (inactive), the GI50 (ACHN) was 21.3 µM (inactive) and 19.8 µM (inactive) and the GI50 (T47D) was 19.8 µM (inactive) and 30.1 µM (inactive). The GI50 (HCT-116) was 33.5 µM (inactive) and 42.5 µM (inactive), the GI50 (RPMI-8226) was 29.6 µM (inactive) and 26.7 µM (inactive) and the GI50 (MCF7) was 17 µM (inactive). The GI50 (IGROV-1) was 45.2 µM (inactive) and 29.8 µM (inactive), the GI50 (K562) was 26.5 µM (inactive) and 38.7 µM (inactive) and the GI50 (HCT-15) was > 100 µM and 61.2 µM. For the same molecule, the GI50 (OVCAR-4) was 34 µM (inactive) and 22.3 µM (inactive), the GI50 (RXF 393) was 16.1 µM (inactive) and the GI50 (786-0) was 20 µM (inactive) and 29.2 µM (inactive). The GI50 (SR) was 28.3 µM (inactive) and 25 µM (inactive), the GI50 (HT-29) was 26.4 µM (inactive) and 18.4 µM (inactive) and the GI50 (SF-295) was 21.1 µM (inactive) and 22.3 µM (inactive). The GI50 (OVCAR-8) was > 100 µM (inactive) and 74.5 µM (inactive), the GI50 (HOP-62) was 24.7 µM (inactive) and 22.3 µM (inactive) and the GI50 (NCI-H460) was 10.8 µM (inactive). For the same molecule, the GI50 (SN12C) was 24.2 µM (inactive) and 31.5 µM (inactive) and the GI50 (NCI-H23) was 37.9 µM (inactive).

With `CCOC(=O)/C=C/CC(C)(C)COC(C)=O` the GI50 (M14) was 6.75 µM (inactive), the GI50 (NCI/ADR-RES) was > 10 µM (inactive) and the GI50 (SK-OV-3) was > 10 µM (inactive). The GI50 (MDA-N) was 7.48 µM (inactive), the GI50 (TK-10) was > 10 µM (inactive) and the GI50 (OVCAR-3) was > 10 µM (inactive). For the same molecule, the GI50 (UACC-62) was > 10 µM (inactive), the GI50 (PC-3) was > 10 µM (inactive) and the GI50 (Hs-578T) was 406 nM (active). For the same molecule, the GI50 (MDA-MB-231) was > 10 µM (inactive), the GI50 (SK-MEL-2) was > 10 µM (inactive) and the GI50 (HCC 2998) was > 10 µM (inactive). For the same molecule, the GI50 (CCRF-CEM) was > 10 µM (inactive), the GI50 (SW-620) was > 10 µM (inactive) and the GI50 (MDA-MB-435) was > 10 µM (inactive). For the same molecule, the GI50 (NCI-H226) was 2.45 µM (inactive), the GI50 (NCI-H522) was > 10 µM (inactive) and the GI50 (LOX IMVI) was 6.98 µM (inactive). For the same molecule, the GI50 (DU-145) was 7.43 µM (inactive), the GI50 (SF-268) was > 10 µM (inactive) and the GI50 (SK-MEL-28) was > 10 µM (inactive). The GI50 (ACHN) was 6.75 µM (inactive), the GI50 (T47D) was > 10 µM (inactive) and the GI50 (A549) was > 10 µM (inactive). The GI50 (HCT-116) was 6.1 µM (inactive), the GI50 (RPMI-8226) was > 10 µM (inactive) and the GI50 (UACC-257) was > 10 µM (inactive). For the same molecule, the GI50 (MCF7) was > 10 µM (inactive), the GI50 (K562) was 9.91 µM (inactive) and the GI50 (HCT-15) was > 10 µM. For the same molecule, the GI50 (OVCAR-4) was > 10 µM (inactive), the GI50 (RXF 393) was 5.32 µM (inactive) and the GI50 (MOLT-4) was > 10 µM (inactive). The GI50 (SR) was > 10 µM (inactive), the GI50 (SF-295) was > 10 µM (inactive) and the GI50 (NCI-H460) was > 10 µM (inactive). The GI50 (SN12C) was > 10 µM (inactive), the GI50 (OVCAR-5) was 9.08 µM (inactive) and the GI50 (NCI-H23) was > 10 µM (inactive). For the same molecule, the GI50 (SNB-75) was 5.11 µM (inactive), the GI50 (HL-60) was > 10 µM (inactive) and the GI50 (KM12) was 0.811 µM (active). The GI50 (UO-31) was > 10 µM (inactive).
